{"source": "patent US20190248834A1", "about": "“ENDOMORPHIN-2, TETRAPEPTIDE DERIVATIVES THEREOF, AND USES THEREOF” (priority 2016, published 2019)", "assay_type_in_all_cases": "in vivo, human", "key": {"[1]": {"tested_on": "knee and lower back pain from osteoarthritis", "assay": "Example 14: analgesic effect on osteoarthritic knees and lower back, topical", "conditions": "1% (w/v) in WEP442, about 60 ml to whole body", "description": "A subject had severe knee pain for many years and lower back pain for approximately one year from osteoarthritis, and in both cases, the pain was partially relieved by oral opiates. One day before bedtime, the subject took a low dose of an opiate, but the next morning, they still developed substantial pain in the knees and moderate pain in the lower back.\nThe subject topically applied approximately 60 ml of a solution composition containing 1% (w/v) N-Ac-Tyr-Pro-Phe-Phe-NH2 (SEQ ID NO: 23) in WEP442 to the whole body, excluding only the scalp, face and soles. […] This lowered degree of pain was maintained for about 7 hours."}, "pain from MTSS": {"tested_on": "pain from MTSS", "assay": "Example 22: analgesic effect on medial tibial stress syndrome, topical", "from_the_text": "A small statured person, caretaker of an over-weight disabled elderly person, every evening suffers pain from MTSS of the left lower leg that is due to repeated use of the left leg to lift their patient throughout the day. Their sleeping has been repeatedly disturbed by the pain. […] They followed this sequence of procedures daily for one week work shift with the same result of rapid absolute relief of pain. During the week of being off from work, the MTSS is absent."}, "[2]": {"tested_on": "dental pain after filling", "assay": "Example 27: analgesic effect on dental pain, applied to tooth and gum", "description": "A subject, experienced substantial pain in an upper left retro-molar that started 3 hours after having a dental filling procedure done on the tooth. The pain became more intense over the ensuing hours, at which time they applied to the tooth and gum using a cotton tipped applicator a composition containing 1% (w/v) of N-Ac-Tyr-Pro-Phe-Phe-NH2 (SEQ ID NO: 23) in WEP442. […] Re-application of the composition provided the same relief for the same duration."}, "[3]": {"tested_on": "jaw pain after tooth extraction", "assay": "Example 28: analgesic effect on dental extraction pain, topical", "description": "A subject had substantial pain in the left mandibular jaw that started about 3 hours after extraction of a left mandibular molar tooth. […] Only negligible discomfort was perceptible thereafter."}, "[4]": {"tested_on": "sore subcutaneous lipomas", "assay": "Example 35: analgesic effect on soreness of subcutaneous lipomas, topical", "conditions": "1% (w/v) in WEP442, topical", "from_the_text": "A subject with many subcutaneous lipomas on their arms, torso and thighs that often become painfully sore after being bumped against objects during the course of daily activities, topically applied to tenderly sore lipomas a composition containing 1% (w/v) N-Ac-Tyr-Pro-Phe-Phe-NH2 (SEQ ID NO: 23) in WEP442. Such applications were repeated multiple times over a period of two months."}, "[5]": {"tested_on": "bursitis of the right elbow", "assay": "Example 36: analgesic effect on pain of elbow bursitis, topical", "from_the_text": "A subject had painful bursitis of the right elbow that impaired their performance as a golfer. […] They played golf later the same day and experienced no bursitis pain during the game."}, "[6]": {"tested_on": "severe migraine headaches", "assay": "Example 41: analgesic effect on migraine headaches, topical", "from_the_text": "A subject with severe migraine headaches associated with nausea and vomiting that had been occurring 3-4 times per month over the past 9-10 years, topically applied a composition containing 1% (w/v) of N-Ac-Tyr-Pro-Phe-Phe-NH2 (SEQ ID NO: 23) in WEP442 to the forehead, brow, eyelids and temporal areas at the onset of headaches. […] The frequency of episodes diminished over the next two months, and the subject reported that they experienced no headaches for at least a 5 week period."}, "hangover headache": {"tested_on": "hangover headache", "assay": "Example 74: analgesic effect on severe hangover headache, topical", "conditions": "0.5% (w/v) in WEP442, topical", "from_the_text": "They were provided a solution composition containing 0.5% (w/v) of N-Ac-Tyr-Pro-Phe-Phe-NH2 (SEQ ID NO: 23) in WEP442 which they topically applied to the neck, peripheral scalp, and entire face and forehead."}, "[7]": {"tested_on": "acute right temporal nauseating headache", "assay": "Example 49: topical treatment of severe right temporal headache", "conditions": "1% (w/v) in WEP442, topical", "from_the_text": "They were given, by a nearby companion, a solution composition containing 1% (w/v) of N-Pg-Tyr-Pro-Phe-Phe-NH2 (SEQ ID NO: 44) in WEP442, which they topically applied to the right temporal area, right closed eyelids, entire forehead and right eyebrow."}, "painful tendonitis": {"tested_on": "painful tendonitis", "assay": "Example 50: topical treatment of painful tendonitis of right wrist and right thumb", "conditions": "1% (w/v) in WEP442, topical", "from_the_text": "A subject with painful tendonitis after playing tennis topically applied a composition containing 1% (w/v) of N-Pg-Tyr-Pro-Phe-Phe-NH2 (SEQ ID NO: 44) in WEP442 to the right thumb and to the entire wrist."}, "headache": {"tested_on": "headache", "assay": "Example 52: analgesic effect on headache", "conditions": "1% (w/v) in WEP442, topical", "from_the_text": "At 5:30 p.m., the headache pain was becoming more intense, at which time they topically applied a composition containing 1% (w/v) of N-Pg-Tyr-Pro-Phe-Phe-NH2 (SEQ ID NO: 44) in WEP442 to the entire forehead and temporal areas. […] There was no recurrence of symptoms over the next 3 days of follow-up time."}, "severe headache": {"tested_on": "severe headache", "assay": "Example 59: analgesic effect on headache of acupuncturist, topical", "conditions": "0.6% (w/v) in WEP442, topical", "from_the_text": "A person acupuncturist, on a day while practicing their specialty, developed a severe headache that was not relieved by administering acupuncture procedures themself."}, "[8]": {"tested_on": "chronic foot pain and neck pain", "assay": "Example 67: analgesic effect on pain in feet and neck with plaque psoriasis, topical", "conditions": "0.5% (w/v) in WEP442, topical", "from_the_text": "A person with plaque psoriasis since their early teenage years had chronic foot pain for the past 10-15 years and neck pain for the past several years. The latter had been associated with, and aggravated by occupationally keeping their neck to one side as they held a phone against their head. […] Such topical applications provided relief for over one month when used."}, "carpal tunnel syndrome": {"tested_on": "carpal tunnel syndrome", "assay": "Example 78: analgesic effect on carpal tunnel syndrome, topical", "description": "A subject, and a computer operator, presented with symptoms of carpal tunnel syndrome, i.e. wrist pain and tingling sensations of the palm and fingers. […] Relief occurred within 3 minutes of topical application and lasted for 2-4 hours."}}, "note": "Non-standard residues stand in square brackets, D forms with d. pGlu = O=C1CC[C@@H](C(=O)O)N1", "data": [{"molecule": "CC(=O)N[C@@H](Cc1ccc(O)cc1)C(=O)N1CCC[C@H]1C(=O)N[C@@H](Cc1ccccc1)C(=O)N[C@@H](Cc1ccccc1)C(N)=O", "note": "[N-Ac-Tyr-Pro-Phe-Phe-NH2]", "values": [{"measurement": "duration of lowered degree of pain", "setting": "[1]", "result": "about 7 hours"}, {"measurement": "pain in both knees and the lower back", "setting": "[1]; after 4 hours", "result": "diminished to very low level"}, {"measurement": "pain in both knees and the lower back", "setting": "[1]; over the next 2 hours", "result": "diminished substantially"}, {"measurement": "pain relief", "setting": "pain from MTSS; 1% (w/v) in WEP442, single topical application", "result": "completely relieved the pain"}, {"measurement": "duration of pain relief", "setting": "pain from MTSS; 1% (w/v) in WEP442, topical", "result": "No pain occurred until the next evening"}, {"measurement": "time to pain relief", "setting": "pain from MTSS; 1% (w/v) in WEP442, topical", "result": "≤ 1", "unit": "min"}, {"measurement": "duration of pain relief", "setting": "[2]; 1% (w/v) in WEP442", "result": "about 3 hours"}, {"measurement": "time to pain relief", "setting": "[2]; 1% (w/v) in WEP442", "result": "≤ 1", "unit": "min"}, {"measurement": "pain relief", "setting": "[2]; 1% (w/v) in WEP442, applied to tooth and gum", "result": "pain ceased completely"}, {"measurement": "time to pain relief", "setting": "[3]; 1% (w/v) in WEP442, topical", "result": "less than 1 minute"}, {"measurement": "pain relief", "setting": "[3]; 1% (w/v) in WEP442, topical to facial-lower jaw skin", "result": "complete relief of pain"}, {"measurement": "time to relief", "setting": "[4]", "result": "≤ 1", "unit": "min"}, {"measurement": "relief of soreness", "setting": "[4]; repeated over two months", "result": "relieved all feelings of soreness"}, {"measurement": "pain relief", "setting": "[5]; 0.8% (w/v) in WEP442, topical", "result": "complete loss of pain"}, {"measurement": "time to pain relief", "setting": "[5]; 0.8% (w/v) in WEP442, topical", "result": "≤ 2", "unit": "min"}, {"measurement": "duration of pain relief", "setting": "[5]; 0.8% (w/v) in WEP442, topical in the afternoon", "result": "Pain did not recur until the next morning"}, {"measurement": "time to pain relief", "setting": "[6]; 1% (w/v) in WEP442, topical", "result": "2 to 3", "unit": "min"}, {"measurement": "pain relief", "setting": "[6]; 1% (w/v) in WEP442, topical at onset of headaches", "result": "Complete relief of pain and other symptoms"}, {"measurement": "period without headaches", "setting": "[6]; 1% (w/v) in WEP442, topical, over the next two months", "result": "≥ 5", "unit": "week"}, {"measurement": "headache relief", "setting": "hangover headache", "result": "almost immediate, complete, relief of their aching head"}]}, {"molecule": "N-Pg-Tyr-Pro-Phe-Phe-NH2 ([pGlu]YPFF-NH2; SMILES NC(=O)[C@H](Cc1ccccc1)NC(=O)[C@H](Cc1ccccc1)NC(=O)[C@@H]1CCCN1C(=O)[C@H](Cc1ccc(O)cc1)NC(=O)[C@@H]1CCC(=O)N1)", "values": [{"measurement": "pain relief", "setting": "[7]", "result": "the headache subsided completely"}, {"measurement": "recurrence", "setting": "[7]", "result": "did not return"}, {"measurement": "time to pain relief", "setting": "[7]", "result": "3 to 5", "unit": "min"}, {"measurement": "pain relief", "setting": "painful tendonitis", "result": "all pain and discomfort from any hand movements were gone"}, {"measurement": "time to pain relief", "setting": "painful tendonitis", "result": "5 to 10", "unit": "min"}, {"measurement": "time without return of pain (follow up period)", "setting": "painful tendonitis", "result": "≥ 24", "unit": "h"}, {"measurement": "pain relief", "setting": "headache", "result": "all pain, and heavy feelings were completely gone"}, {"measurement": "time to pain relief", "setting": "headache", "result": "≤ 30", "unit": "s"}, {"measurement": "time without recurrence of symptoms (follow-up)", "setting": "headache", "result": "≥ 3", "unit": "days"}, {"measurement": "pain relief", "setting": "severe headache", "result": "completely relieved their headache"}, {"measurement": "time to pain relief", "setting": "severe headache", "result": "≤ 2", "unit": "min"}, {"measurement": "duration of pain relief", "setting": "[8]", "result": "8 to 10", "unit": "h"}, {"measurement": "pain relief", "setting": "[8]", "result": "almost complete relief of pain"}, {"measurement": "duration of relief", "setting": "carpal tunnel syndrome; 0.5% (w/v) in WEP442, topical", "result": "2 to 4", "unit": "h"}, {"measurement": "time to relief", "setting": "carpal tunnel syndrome; 0.5% (w/v) in WEP442, topical", "result": "≤ 3", "unit": "min"}, {"measurement": "relief of symptoms", "setting": "carpal tunnel syndrome; 0.5% (w/v) in WEP442, topical several times during working hours", "result": "substantial relief of the symptoms"}]}]}
